Results from patent US20220125052A1, “Herbicidal Compositions” (SYNGENTA CROP PROTECTION AG, priority 2019, published 2022).

Columns and labels:
Assay in all cases: Post-emergence efficacy (B1), glasshouse spray test
Type in all cases: in vivo
[1] = tested on: Lolium perenne (LOLPE); settings: evaluated after 13 days, 100=total damage to plant, 0=no damage to plant
Experimental: (§1) B1 Post-emergence efficacy Seeds of a variety of test species were sown in standard laom-based soil in pots:—Ipomoea hederacea (IPOHE), Euphorbia heterophylla (EPHHL), Chenopodium album (CHEAL), Amaranthus palmeri (AMAPA), Lolium perenne (LOLPE), Digitaria sanguinalis (DIGSA), Eleusine indica (ELEIN), Echinochloa crus-galli (ECHCG), Setaria faberi (SETFA). After cultivation for 14 days (post-emergence) under controlled conditions in a glasshouse (at 24/16° C., day/night; 14 hours light; 65% humidity), the plants were sprayed with an aqueous spray solution derived from the dissolution of the technical active ingredient Formula (I) in a small amount of acetone and a special solvent and emulsifier mixture referred to as IF50 (11.12% Emulsogen EL360 TM+44.44% N-methylpyrrolidone+44.44% Dowanol DPM glycol ether), to create a 50 g/l solution which was then diluted to required concentration using 0.25% or 1% Empicol ESC70 (Sodium lauryl ether sulphate)+1% ammonium sulphate as diluent. The delivery of the aqueous spray solution was via a laboratory track sprayer which delivered the aqueous spray composition at a rate of 200 litres per hectare, using a flat fan nozzle (Teejet 11002VS) and an application volume of 200 litre/ha (at 2 bar). The test plants were then grown in a glasshouse under controlled conditions (at 24/16° C., day/night; 14 hours light; 65% humidity) and watered twice daily. After 13 days the test was evaluated (100=total damage to plant; 0=no damage to plant).

[2] = tested on: Digitaria sanguinalis (DIGSA); settings: 500 g/Ha, evaluated after 13 days, 100=total damage to plant, 0=no damage to plant
Experimental: as §1

[3] = tested on: Echinochloa crus-galli (ECHCG); settings: 500 g/Ha, evaluated after 13 days, 100=total damage to plant, 0=no damage to plant
Experimental: as §1

[4] = tested on: Eleusine indica (ELEIN); settings: 500 g/Ha, evaluated after 13 days, 100=total damage to plant, 0=no damage to plant
Experimental: as §1

[5] = tested on: Euphorbia heterophylla (EPHHL); settings: 500 g/Ha, evaluated after 13 days, 100=total damage to plant, 0=no damage to plant
Experimental: as §1

[6] = tested on: Setaria faberi (SETFA); settings: 500 g/Ha, evaluated after 13 days, 100=total damage to plant, 0=no damage to plant
Experimental: as §1

[7] = tested on: Amaranthus palmeri (AMAPA); settings: 500 g/Ha, evaluated after 13 days, 100=total damage to plant, 0=no damage to plant
Experimental: as §1

[8] = tested on: Chenopodium album (CHEAL); settings: 500 g/Ha, evaluated after 13 days, 100=total damage to plant, 0=no damage to plant
Experimental: as §1

Row | Structure (SMILES) | Control of weed species after post-emergence application: LOLPE ([1]; 500 g/Ha) | Control of weed species after post-emergence application: DIGSA [2] | Control of weed species after post-emergence application: ECHCG [3] | Control of weed species after post-emergence application: ELEIN [4] | Control of weed species after post-emergence application: EPHHL [5] | Control of weed species after post-emergence application: SETFA [6] | pest or weed control at 500 g/ha ([1]; Lolium perenne, 312 h, read-out: Control of weed species after post-emergence application: LOLPE) [%] | Control of weed species after post-emergence application: AMAPA [7] | Control of weed species after post-emergence application: CHEAL [8]
1 | O=C(O)CC[n+]1ccc(-c2ncccn2)cn1.[Cl-] [Compound 1.010, 3-(4-pyrimidin-2-ylpyridazin-1-ium-1-yl)propanoic acid chloride] | 90 |  |  |  |  |  |  |  | 
2 | O=C(O)CC[n+]1ccc(-c2ncccn2)cn1.[Br-] [Compound 1.021, 3-(4-pyrimidin-2-ylpyridazin-1-ium-1-yl)propanoic acid bromide] |  | 100 | 100 | 100 | 100 | 100 |  |  | 
3 | O=C(O)CC[n+]1ccc(-c2ncccn2)cn1 [Compound 1.023, 3-(4-pyrimidin-2-ylpyridazin-1-ium-1-yl)propanoic acid 2,2,2-trifluoroacetate] |  |  |  |  |  |  | 90 |  | 
4 | O=C(O)CC[n+]1ccc(-c2cccnn2)cn1.[Cl-] [Compound 1.027, 3-(4-pyridazin-3-ylpyridazin-1-ium-1-yl)propanoic acid chloride] |  | 100 | 100 |  | 100 | 100 |  | 100 | 100
5 | Cl.N[C@@H](CCC[n+]1ccc(-c2ncccn2)cn1)C(=O)O.[Cl-] [Compound 1.030, [(1S)-1-carboxy-4-(4-pyrimidin-2-ylpyridazin-1-ium-1-yl)butyl]-ammonium dichloride] |  | 100 | 100 |  |  | 100 |  |  | 
